Data: publication PMC9767416, “Discovery of small molecule mechanistic target of rapamycin inhibitors as anti-aging and anti-cancer therapeutics” (Frontiers in Aging Neuroscience, 2022)

What was measured:
[1] = CNS MPO desirability score; details: from experimental and calculated data, method of Wager et al. (2016); scale 0-6
Experimental: ACDLAbs PhysChem Suite 14.0 software (Advanced Chemistry Development, Inc., Toronto, ON, Canada) was used for the calculation of Mw, tPSA, and HBD values. The CNS MPO score calculation method was described by [Wager et al. (2016)].
Central nervous system multiparameter optimization desirability score was calculated as described by [Wager et al. (2016)], utilizing all collected experimental and calculated data. This scoring tool was set on ranges of desirable property space and linear transformational functions with values between 0 and 1 (defined as T0 for each property). Rating each parameter equally, the collective score ranges from 0 to 6, while a score higher than 4 is desirable ([Rankovic, 2015]).

[2] = system: U87 cells; assay: Time-lapse microscopy with annexin V staining of proliferating U87; assay type: cell-based, human
Experimental: For auto-monitoring of cells, Incucyte SX1 Live-Cell Analysis System (Sartorius, Göttingen, Germany), located in an incubator maintained at 37°C under a 5% CO2 atmosphere and 95% humidity, was utilized. The images (1,408 × 1,040 pixels at 1.24 microns/pixel) were acquired using a 10× objective lens in phase contrast, red fluorescence (excitation: 585 ± 20 nm, emission: 635 [625, 705] nm, acquisition time: 100 ms) channels every 60 min during 72 h. The first image was acquired 30 min after adding compounds. The images were processed to measure cell confluence using Incucyte software (version 2022A). Annexin V – Dy647, Apronex (diluted 1:1,000) was used for apoptotic cell staining.

[3] = system: docetaxel (DTX)-induced senescent BJ cells; assay: Crystal violet and resazurin assays in docetaxel-induced senescent BJ; assay type: cell-based, human
Experimental: To obtain ionizing radiation (IR)-induced senescent cells, proliferating RPE-1 cells were exposed to a single dose of X-rays (20 Gy) using Pantak HF160 (Gulmay, Surrey, UK) X-ray instrument equipped with Pantak Seifert HF320 generator, MXR-161 X-ray tube (Comet AG, Flamatt, Switzerland), and an aluminum filter using current 1–10 mA. After irradiation, the cells were cultured for an additional 7 days until the development of the senescent phenotype ([Salovska et al., 2022]). To induce docetaxel-induced senescence (DIS), BJ cells were exposed to 5 nM docetaxel for 7 days, as described previously ([Sapega et al., 2018]). […]
For the crystal violet assay, the cells were washed twice with 150 μL PBS and stained with 30 μL 0.5% (w/v) crystal violet in 20% methanol for 15 mins. […] The absorbance was read at 595 nm using a microplate reader (Envision, PerkinElmer, Waltham, MA, USA). The absorbance of crystal violet in treated cells was expressed as a percentage of absorbance in untreated cells. Each condition was measured at least in triplicate.
For the resazurin assay, 200 μL of the culture medium of each well was exchanged for 100 μL of resazurin (stock solution 30 mg/mL; Sigma, St. Louis, MO, USA) diluted 10 times in the culture medium, and the cells were incubated at 37°C for 1–3 h. Reading of fluorescence was done using a microplate reader (PerkinElmer, Waltham, MA, USA). […]

In the case of Nc1ccc(C(=O)Nc2cccc(-c3c[nH]c4ncccc34)c2)cc1O [Compound 3, N-(3-(1H-pyrrolo[2,3-b]pyridin-3-yl)phenyl)-4-amino-3-hydroxybenzamide], the “MPO (CNS MPO score)” value [1] is reported as 4.5, the “cell phenotype in time-lapse microscopy” value ([2]; proliferating U87, 100 μM, 72 h) is reported as “rapid loss of cell spreading with a lack of mitotic activity and progressively occurring cell death” and the “induction of apoptosis (annexin V staining)” value ([2]; time-lapse microscopy 72 h, 0–100 μM, Figure 5G) is reported as “confirmed”. The “selectivity for senescent versus proliferating cells” value ([3]; DIS-BJ vs proliferating BJ, crystal violet and resazurin) was “non-selective manner” and the “sensitivity of senescent cells (crystal violet and resazurin)” value ([3]; DTX-induced senescent BJ, 0–100 μM, 24 h) was “significantly sensitive”.
